Columns and labels:
Assay in all cases: Test C pre-/postemergence greenhouse herbicide test
Format in all cases: in vivo
[1] = system: galium (catchweed bedstraw, Galium aparine); conditions: post-emergence, Galium, Postemergence, read-out: Plant response rating
Outline: (§1)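 Greenhouse pre- and postemergence screen: compounds in a non-phytotoxic solvent mix plus surfactant were applied to soil/sand-sown seeds or to 1- to 4-leaf plants. Visual rating 13–15 d later, 0 (no effect) to 100 (complete control).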

[2] = system: velvetleaf (Abutilon theophrasti); conditions: Abutilon theophrasti, post-emergence, Velvetleaf, Postemergence, read-out: Plant response rating
Outline: as §1

[3] = system: barnyardgrass (Echinochloa crus-galli); conditions: Barnyardgrass, Postemergence
Outline: as §1

[4] = system: nutsedge, yellow (yellow nutsedge, Cyperus esculentus); conditions: Cyperus, post-emergence, Nutsedge, Yellow, Postemergence, read-out: Plant response rating
Outline: as §1

[5] = system: corn (Zea mays); conditions: Zea mays, post-emergence, Corn, Postemergence, read-out: Plant response rating
Outline: as §1

[6] = system: waterhemp (common waterhemp, Amaranthus rudis); conditions: Waterhemp, Postemergence
Outline: as §1

[7] = system: foxtail, giant (giant foxtail, Setaria faberii); conditions: Setaria faberi, post-emergence, Foxtail, Giant, Postemergence, read-out: Plant response rating
Outline: as §1

[8] = system: crabgrass, Large (large crabgrass, Digitaria sanguinalis); conditions: Digitaria sanguinalis, post-emergence, Crabgrass, Large, Postemergence, read-out: Plant response rating
Outline: as §1

[9] = system: soybean (Glycine max); conditions: Glycine max, post-emergence, Soybean, Postemergence, read-out: Plant response rating
Outline: as §1

[10] = system: lambsquarters (Chenopodium album); conditions: Postemergence
Outline: as §1

[11] = system: kochia (Kochia scoparia); conditions: Postemergence
Outline: as §1

[12] = system: oilseed rape (Brassica napus); conditions: Oilseed Rape, Postemergence
Outline: as §1

[13] = system: ryegrass, Italian (Italian ryegrass, Lolium multiflorum); conditions: Lolium multiflorum, post-emergence, Ryegrass, Italian, Postemergence, read-out: Plant response rating
Outline: as §1

Q: What does the source list for Cc1cc(Oc2ccnc(C(F)(F)F)c2)nn(-c2ccc(C(F)(F)F)cc2)c1=O [Compound 6, 4-methyl-2-[4-(trifluoromethyl)phenyl]-6-[[2-(trifluoromethyl)-4-pyridinyl]oxy]-3(2H)-pyridazinone]?
A: pest or weed control at 31 g/ha ([1]; 31 g ai/ha): 90%; pest or weed control at 62 g/ha ([1]; 62 g ai/ha): 90%; pest or weed control at 125 g/ha ([1]; 125 g ai/ha): 90%; pest or weed control at 250 g/ha ([1]; 250 g ai/ha): 90%; pest or weed control at 31 g/ha ([2]; 31 g ai/ha): 45%; pest or weed control at 62 g/ha ([2]; 62 g ai/ha): 45%; pest or weed control at 125 g/ha ([2]; 125 g ai/ha): 55%; pest or weed control at 250 g/ha ([2]; 250 g ai/ha): 95%; Plant response rating ([3]; 31 g ai/ha): 10; Plant response rating ([3]; 62 g ai/ha): 10; Plant response rating ([3]; 125 g ai/ha): 35; Plant response rating ([3]; 250 g ai/ha): 65; pest or weed control at 31 g/ha ([4]; 31 g ai/ha): 5%; pest or weed control at 62 g/ha ([4]; 62 g ai/ha): 5%; pest or weed control at 125 g/ha ([4]; 125 g ai/ha): 5%; pest or weed control at 250 g/ha ([4]; 250 g ai/ha): 15%; plant injury at 31 g/ha ([5]; 31 g ai/ha): 15%; plant injury at 62 g/ha ([5]; 62 g ai/ha): 25%; plant injury at 125 g/ha ([5]; 125 g ai/ha): 25%; plant injury at 250 g/ha ([5]; 250 g ai/ha): 35%; Plant response rating ([6]; 31 g ai/ha): 95; Plant response rating ([6]; 62 g ai/ha): 98; Plant response rating ([6]; 125 g ai/ha): 98; Plant response rating ([6]; 250 g ai/ha): 98; pest or weed control at 31 g/ha ([7]; 31 g ai/ha): 25%; pest or weed control at 62 g/ha ([7]; 62 g ai/ha): 35%; pest or weed control at 125 g/ha ([7]; 125 g ai/ha): 65%; pest or weed control at 250 g/ha ([7]; 250 g ai/ha): 85%; pest or weed control at 31 g/ha ([8]; 31 g ai/ha): 10%; pest or weed control at 62 g/ha ([8]; 62 g ai/ha): 20%; pest or weed control at 125 g/ha ([8]; 125 g ai/ha): 30%; pest or weed control at 250 g/ha ([8]; 250 g ai/ha): 35%; plant injury at 31 g/ha ([9]; 31 g ai/ha): 35%; plant injury at 62 g/ha ([9]; 62 g ai/ha): 50%; plant injury at 125 g/ha ([9]; 125 g ai/ha): 50%; plant injury at 250 g/ha ([9]; 250 g ai/ha): 65%; Plant response rating ([10]; 31 g ai/ha): 75; Plant response rating ([10]; 62 g ai/ha): 90; Plant response rating ([10]; 125 g ai/ha): 95; Plant response rating ([10]; 250 g ai/ha): 95; Plant response rating ([11]; 31 g ai/ha): 90; Plant response rating ([11]; 62 g ai/ha): 90; Plant response rating ([11]; 125 g ai/ha): 90; Plant response rating ([11]; 250 g ai/ha): 95; Plant response rating ([12]; 31 g ai/ha): 85; Plant response rating ([12]; 62 g ai/ha): 85; Plant response rating ([12]; 125 g ai/ha): 95; Plant response rating ([12]; 250 g ai/ha): 95; pest or weed control at 31 g/ha ([13]; 31 g ai/ha): 5%; pest or weed control at 62 g/ha ([13]; 62 g ai/ha): 10%; pest or weed control at 125 g/ha ([13]; 125 g ai/ha): 15%; pest or weed control at 250 g/ha ([13]; 250 g ai/ha): 35%

Reference: patent US10202361B2, “Pyridazinones as herbicides” (E I DU PONT DE NEMOURS AND COMPANY, priority 2014, dated 2019)
